Test results published in patent US11826396B2, “Nutriprotective diet” (FÉDÉRATION DES PRODUCTEURS ACÉRICOLES DU QUÉBEC, priority 2011, dated 2023).

Test: diphenylpicrylhydrazyl (DPPH) radical scavenging assay
Assay type: biochemical
Settings: read-out: antioxidant activity, IC50

## Cc1cc(C(C)(C)C)c(O)c(C(C)(C)C)c1 [butylatedhydroxytoluene]
  IC50: 2.65 mM

## O=C1O[C@H]([C@@H](O)CO)C(O)=C1O [vitamin C, Ascorbic acid]
  IC50: 0.058 mM
